Measured values published in patent US7517998B2, “Non nucleoside reverse transcriptase inhibitors” (priority 2004, dated 2009).

Molecular target: T1, K103NNY181C mutant reverse transcriptase (Human immunodeficiency virus type 1 group M subtype B, UniProt P04585, K690N/Y768C)
T1 construct: mutations that occur in the reverse transcriptase segment of the pol gene
Test: Reverse transcriptase enzymatic assay (PicoGreen), K103N/Y181C mutant RT
Type: biochemical, HIV-1
Conditions: enzymatic assay of Example 24
Method in brief: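 PicoGreen fluorescence (ex 485, em 520 nm) quantified product after EDTA stop. Reaction ran 50 min at 37 °C in pH 7.8 Tris/HCl buffer, 1% DMSO, with poly rC/dG15 template-primer (45/4.5 nM), 3.6 μM dGTP, 2.5 nM enzyme; inhibitor 10 μM–0.508 nM final after 15 min room-temperature pre-incubation.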

[1] = IC50 mut, K103N/Y181C mutant reverse transcriptase
[2] = IC50 mut, mutant reverse transcriptase
[3] = IC50 mut (nM), mutant (K103N/Y181C) reverse transcriptase

SMILES	IC50 [1] [nM]	IC50 [2] [nM]	other results
O=C(CSc1nnnn1-c1ccc(C2CC2)cc1Cl)Nc1ccc(C#CC2(CNCCN3CCCC3)CC2)cc1Cl [Compound 4095]	98.5		
CC(C)(C)c1ccc(-n2nnnc2SCC(=O)Nc2ccc(C#CCCCCO)cc2Cl)c(Cl)c1 [Compound 4003]	643		
CC(C)(C#Cc1ccc(NC(=O)CSc2nnnn2-c2ccc(C3CC3)cc2Cl)c(Cl)c1)C(=O)NC(C)(C)C(=O)O [Compound 4144]	81		
CC(C)(C#Cc1ccc(NC(=O)CSc2nnnn2-c2ccc(C3CC3)cc2Cl)c(Cl)c1)C(=O)N1CCC(C(=O)O)CC1 [Compound 4149]	16.5		
CC(C)(C)c1ccc(-n2nnnc2SCC(=O)Nc2ccc(-c3ccc(OCC(=O)O)cc3F)cc2Cl)c(Cl)c1 [Compound 3020]		23	
CC(C)(C)c1ccc(-n2nnnc2SCC(=O)Nc2ccc(NC(=O)Cc3ccccc3O)cc2Cl)c(Cl)c1 [Compound 7042]			IC50 [3]: 27 nM
CC(C)(C)c1ccc(-n2nnnc2SCC(=O)Nc2ccc(C(=O)Nc3ccc(C(=O)O)cc3)cc2Cl)c(Cl)c1 [Compound 6014]		34	
CC(C)(C#Cc1ccc(NC(=O)CSc2nnnn2-c2cc(C(F)(F)F)cc(C3CC3)c2Cl)c(Cl)c1F)NC(=O)c1ccc[n+]([O-])c1 [Compound 4230]	30.5		
CC(C)(C)c1ccc(-n2nnnc2SCC(=O)Nc2ccc(OCC(=O)NCCN3CCOCC3)cc2Cl)c(Cl)c1 [Compound 5007]		244	
CC(C)(C)c1ccc(-n2nnnc2SCC(=O)Nc2ccc(C(=O)NCCO)cc2Cl)c(Cl)c1 [Compound 6016]		35	
COC(=O)c1cccc(-c2ccc(NC(=O)CSc3nnnn3-c3ccc(C)cc3Cl)c(Cl)c2)c1 [Compound 3001]		146	
CC(C)(C)c1ccc(-n2nnnc2SCC(=O)Nc2ccc(NC(=O)Nc3ccc(C(=O)O)cc3)cc2Cl)c(Cl)c1 [Compound 7009]			IC50 [3]: 43 nM
CC(C)(C#Cc1ccc(NC(=O)CSc2nnnn2-c2ccc(C3CC3)cc2Cl)c(Cl)c1)NC(=O)c1csnn1 [Compound 4107]	15		
CC(C)(C)c1ccc(-n2nnnc2SCC(=O)Nc2ccc(NC(=O)Cn3cnnn3)cc2Cl)c(Cl)c1 [Compound 7040]			IC50 [3]: 42.5 nM
Cc1cc(NC(=O)COc2ccc(NC(=O)CSc3nnnn3-c3ccc(C(C)(C)C)cc3Cl)c(Cl)c2)no1 [Compound 5001]		71	
CN1CCN(C(=O)NC(C)(C)C#Cc2ccc(NC(=O)CSc3nnnn3-c3ccc(C4CC4)cc3Cl)c(Cl)c2)CC1 [Compound 4229]	15		
CC(=O)NC(C(=O)Nc1ccc(NC(=O)CSc2nnnn2-c2ccc(C(C)(C)C)cc2Cl)c(Cl)c1)c1ccccc1 (stereo not shown) [Compound 7033]			IC50 [3]: 21.5 nM
CC(C)(C)c1ccc(-n2nnnc2SCC(=O)Nc2ccc(S(=O)(=O)NCc3ccccc3)cc2Cl)c(Cl)c1 [Compound 3028]		440	
CC(C)(NC(=O)c1ccc(NC(=O)CSc2nnnn2-c2ccc(C3CC3)cc2Cl)c(Cl)c1)C(=O)O [Compound 6033]		298	
Cc1ccc(-n2nnnc2SCC(=O)Nc2ccc(-c3ccc(CC(=O)O)cc3)cc2Cl)c(Cl)c1 [Compound 2004]		48	
CC(C)(C)c1ccc(-n2nnnc2SCC(=O)Nc2ccc(S(=O)(=O)NCCc3ccccc3)cc2Cl)c(Cl)c1 [Compound 3024]		516	
Cc1nnc(SCC(=O)Nc2ccc(C#CC(C)(C)COC(N)=O)cc2Cl)n1-c1ccc(C2CC2)cc1Cl [Compound 1011]		21	

SMILES	IC50 [1] [nM]	IC50 [2] [nM]	other results
CC(C)(C)c1ccc(-n2nnnc2SCC(=O)Nc2ccc(C(=O)NCCN3CCOCC3)cc2Cl)c(Cl)c1 [Compound 6028]		55	
CC(C)(C)c1ccc(-n2nnnc2SCC(=O)Nc2ccc(NC(=O)c3ccccc3Cl)cc2Cl)c(Cl)c1 [Compound 7013]			IC50 [3]: 121 nM
CC(C)(C)c1ccc(-n2nnnc2SCC(=O)Nc2ccc(C(=O)NCCc3ccc(O)cc3)cc2Cl)c(Cl)c1 [Compound 6017]		33	
CC(C)(C#Cc1ccc(NC(=O)CSc2nnnn2-c2ccc(C(C)(C)C)cc2Cl)c(Cl)c1)OCC(=O)Nc1cccc(C(=O)O)c1 [Compound 4025]	44		
Cc1ccc(-n2nnnc2SCC(=O)Nc2ccc(-c3ccc(CC(=O)NS(C)(=O)=O)cc3)cc2Cl)c(Cl)c1 [Compound 2017]		38	
CC(C)(C#Cc1ccc(NC(=O)CSc2nnnn2-c2cc(Cl)ccc2Cl)c(Cl)c1)NC(=O)CN1CCNCC1 [Compound 4194]	45		
O=C(CSc1nnnn1-c1ccc(C2CC2)cc1Cl)Nc1ccc(C#CCCN2CCC(O)CC2)cc1Cl [Compound 4134]	28.5		
CC(C)(C)c1ccc(-n2nnnc2SCC(=O)Nc2ccc(C(=O)Nc3ccc(N4CCOCC4)cc3)cc2Cl)c(Cl)c1 [Compound 6006]		46	
CN(C)S(=O)(=O)NC(=O)C(C)(C)C#Cc1ccc(NC(=O)CSc2nnnn2-c2ccc(C3CC3)cc2Cl)c(Cl)c1 [Compound 4185]	55.5		
CC(C)(C)c1ccc(-n2nnnc2SCC(=O)Nc2ccc(C#CCN3CCCCC3)cc2Cl)c(Cl)c1 [Compound 4014]	88		
CC(C)(N)C#Cc1ccc(NC(=O)CSc2nnnn2-c2cc(C(F)(F)F)ccc2Cl)c(Cl)c1 [Compound 4137]	88		
CC(C)(C#Cc1ccc(NC(=O)CSc2nnnn2-c2ccc(CC3CC3)cc2Cl)c(Cl)c1)OCCN1CCCC1 [Compound 4246]	212		
CC(C)(C)c1ccc(-n2nnnc2SCC(=O)Nc2ccc(NC(=O)Cc3c[nH]c4ccccc34)cc2Cl)c(Cl)c1 [Compound 7043]			IC50 [3]: 145 nM
CC(C)Oc1ccc(Cl)c(-n2nnnc2SCC(=O)Nc2ccc(C#CC(C)(C)C(=O)O)cc2Cl)c1 [Compound 4187]	61.5		
CCN(CC)CCOc1ccc(-c2ccc(NC(=O)CSc3nnnn3-c3ccc(C(C)(C)C)cc3Cl)c(Cl)c2)cc1 [Compound 2024]		26	
CC(C)(C#Cc1ccc(NC(=O)CSc2nnnn2-c2ccc(CC3CC3)cc2Cl)c(Cl)c1)C(=O)NCCCN1CCCC1=O [Compound 4244]	217		
CC(C)(C#Cc1ccc(NC(=O)CSc2nnnn2-c2cc(C3CC3)cc(C(F)(F)F)c2Cl)c(Cl)c1)C(=O)O [Compound 4159]	136		
Cc1c(NC(=O)CSc2nnnn2-c2ccc(C3CC3)cc2Cl)ccc(C#CC(C)(C)NC(=O)c2cc[n+]([O-])cc2)c1F [Compound 4178]	26		
CC(C)(C#Cc1ccc(NC(=O)CSc2nnnn2-c2ccc(C3CC3)cc2Cl)c(Cl)c1F)NC(=O)CN1CCNCC1 [Compound 4198]	22		
CC(C)(C#Cc1ccc(NC(=O)CSc2nnnn2-c2ccc(C3CC3)cc2Cl)c(Cl)c1)NC(=O)c1ccc[n+]([O-])c1 [Compound 4191]	4.75		
CC(C)c1ccc(-n2nnnc2SCC(=O)Nc2ccc(C#CC(C)(C)C(=O)O)cc2Cl)c(Br)c1 [Compound 4099]	42.5		
CC(C)(C)c1ccc(-n2nnnc2SCC(=O)Nc2ccc(NC(=O)Cc3cc[n+]([O-])cc3)cc2Cl)c(Cl)c1 [Compound 7046]			IC50 [3]: 140 nM

SMILES	IC50 [1] [nM]	IC50 [2] [nM]	other results
O=C(O)Cc1ccc(-c2ccc(NC(=O)CSc3nnnn3-c3ccc(OC(F)(F)F)cc3Cl)c(Cl)c2)cc1 [Compound 2034]		178	
CCC(N)(C#Cc1ccc(NC(=O)CSc2nnnn2-c2ccc(C3CC3)cc2Cl)c(Cl)c1)CC [Compound 4068]	38.5		
CC(C)(C#Cc1ccc(NC(=O)CSc2nnnn2-c2ccc(C3CC3)cc2Cl)c(Cl)c1)NC(=O)OC(C)(C)C [Compound 4069]	112		
CC(C)(O)C#Cc1ccc(NC(=O)CSc2nnnn2-c2cc(F)cc(C(F)(F)F)c2Cl)c(Cl)c1 [Compound 4029]	212		
CC(C)(C#Cc1ccc(NC(=O)CSc2nnnn2-c2ccc(C3CC3)cc2Cl)c(Cl)c1)OCCNC1CCC1 [Compound 4118]	89.5		
O=C(CSc1nnnn1-c1ccc(C2CC2)cc1Cl)Nc1ccc(C#CC2(CN3CCC(O)CC3)CC2)cc1Cl [Compound 4096]	37		
CC(C)(C#Cc1ccc(NC(=O)CSc2nnnn2-c2cc(C(C)(C)C)ccc2Cl)c(Cl)c1)NC(=O)CNc1cc[n+]([O-])cc1 [Compound 4203]	164		
CCN(CC)CC#Cc1ccc(NC(=O)CSc2nnnn2-c2ccc(C(C)(C)C)cc2Cl)c(Cl)c1 [Compound 4008]	94		
CC(C)(N)C#Cc1ccc(NC(=O)CSc2nnnn2-c2cc(C(C)(C)C)ccc2Cl)c(Cl)c1 [Compound 4201]	52		
CC(C)(C)c1ccc(-n2nnnc2SCC(=O)Nc2ccc(OCCN3CCCCC3)cc2Cl)c(Cl)c1 [Compound 3033]		201	
CC(C)(C)c1ccc(-n2nnnc2SCC(=O)Nc2ccc(C#CCO)cc2Cl)c(Cl)c1 [Compound 4006]	11		
O=C(CSc1nnnn1-c1ccc(C2CC2)cc1Cl)Nc1ccc(C#CC2(CO)CC2)cc1Cl [Compound 4083]	29		
O=C(O)Cc1ccc(-c2ccc(NC(=O)CSc3nnnn3-c3ccc4ccccc4c3Cl)c(Cl)c2)cc1 [Compound 2030]		64	
CC(C)c1ccc(-n2nnnc2SCC(=O)Nc2ccc(-c3ccc(OCCN4CCCC4)cc3)cc2Cl)c(Br)c1 [Compound 2053]		24	
CC(C)CCC(=O)Nc1ccc(NC(=O)CSc2nnnn2-c2ccc(C(C)(C)C)cc2Cl)c(Cl)c1 [Compound 7024]			IC50 [3]: 414 nM
CC(C)(C)c1ccc(-n2nnnc2SCC(=O)Nc2ccc(-c3cccc(C(=O)O)c3)cc2Cl)c(Cl)c1 [Compound 3022]		50	
CC(C)(C)c1ccc(-n2nnnc2SCC(=O)Nc2ccc(NC(=O)Cc3ccccc3Cl)cc2Cl)c(Cl)c1 [Compound 7035]			IC50 [3]: 100 nM
CC(C)(C)c1ccc(-n2nnnc2SCC(=O)Nc2ccc(NC(=O)Cc3ccccn3)cc2Cl)c(Cl)c1 [Compound 7032]			IC50 [3]: 30 nM
CC(C)(C)c1ccc(-n2nnnc2SCC(=O)Nc2ccc(OCCN3CCOCC3)cc2Cl)c(Cl)c1 [Compound 3034]		111	
COC(=O)Cc1ccc(-c2ccc(NC(=O)CSc3nnnn3-c3ccc(C)cc3Cl)c([N+](=O)[O-])c2)cc1 [Compound 2010]		40	
